For data set [1] the following is noted: cited from earlier work.
Data set [2] can be described thus: In vitro skin permeation, Franz cells, frozen human abdominal skin. The conditions noted are these: Example 7. The data set is classed as in vitro ADME. As for the experimental part: Percutaneous absorption was measured using the in vitro cadaver skin finite dose technique. Cryo-preserved, human cadaver trunk skin was obtained from a skin bank and stored in water-impermeable plastic bags at <−70° C. until used.
Briefly, skin samples were prepared as follows.
The dermal cell was filled with receptor solution.
Experiments were performed under non-occlusive conditions.
Analysis of the samples was performed by HPLC.
Twenty-five micro liters of sample were injected.
Formulations 7.1 and 7.3 were made essentially as described above in the Materials and Methods. Formulation 7.1 and 7.2 are identical, but formulation 7.1 was tested on pig ear skin, and formulation 7.2 was tested on frozen human abdominal skin. Formulation 7.3 (Reference marketed product) was also tested on frozen human abdominal skin. Permeation studies used Franz cells as described in the Materials and Methods.
Individual gel amounts applied to tested skin samples were approximately 10 mg. Studies were performed according to OECD (Organization for Economic Cooperation and Development) guidelines (Organization for Economic Co-operation and Development (OECD), Environment Directorate. “Guidance document for the conduct of skin absorption studies,” OECD series on testing and assessment, No. 28. Paris, version 5 Mar. 2004).

The nature of data set [3]: In vitro skin permeation, Franz cells, finite dose, non-occlusive, pig ear skin. Particulars: topical or ocular, 10 mg, pH 7.4.
Method: A finite dose (for example: 4-7 mg/cm^2) of formulation is applied to the outer surface of the skin and drug absorption is measured by monitoring its rate of appearance in the receptor solution bathing the inner surface of the skin. Data defining total absorption, rate of absorption, as well as skin content can be accurately determined in this model.
Pig skin can be prepared essentially as described below for human skin.
Prior to the experiment, skin was removed from the bag, placed in water (approximately 37° C.) for five minutes, and then cut into sections large enough to fit on 1 cm^2 Franz Cells (Crown Glass Co., Somerville, N.J.). Briefly, skin samples were prepared as follows. A small volume of phosphate buffered saline (PBS) was used to cover the bottom of the Petri dishes. Skin disks generally depleted of fat layers were placed in the Petri dishes for hydration. A Stadie-Riggs manual tissue microtome was used for slicing excised skin samples. Approximately 2 mL of PBS was placed into the middle cavity of the microtome as slicing lubricant. Skin disks were placed, dermal side up, into the middle cavity of the microtome. Filter paper was soaked with PBS, inserted in the cavity just above the skin disk. The filter paper prevented the dermis from sliding onto the top of the cutting block and helped to insure more precise cutting. […]
For data set [4] the following is noted: in an alcohol/water solvent; cited from earlier work.
The conditions of data set [5]: oral administration; cited from earlier work.

Molecules are shown by their SMILES.

As for `CN1CCC[C@H]1c1cccnc1` [nicotine, 1-methyl-2-(3-pyridyl)pyrrolidone], in data set [1], the Oral bioavailability entry is “about 30%”. In data set [2] (p=0.009), the “change of transdermal in vitro bioavailability, frozen human skin versus fresh pig skin” value is given as −52%. Moreover, the bioavailability at 16 h, 1.5 % FBE turned out to be 18% in data set [2] (topical or ocular, 10 mg, pH 7.4, frozen human skin, gel of Table 13 (formulation 7.2)) and 38% in data set [3]. The “apparent pKa of nicotine” value in data set [4] is on record as 7.7.

Take `NCCCC(O)(P(=O)(O)O)P(=O)(O)O` [sodium alendronate]: the “fraction of the drug absorbed when administered orally” value in data set [5] is “about 0.6%”.

The values above are taken from patent US7387788B1 (priority 2003, dated 2008).
